According to ChEMBL document CHEMBL1143893, “Novel nitroheterocyclic hypoxic markers for solid tumor: synthesis and biological evaluation” (Bioorg Med Chem, 2008):

Assay: Drug level in Chinese hamster V79 379A cells at 0.1 mM after 3.5 hrs by fluorescence microplate reader relative to control
Type: ADME, cell-based, Cricetulus griseus
Details: 100 µM

Fold change | SMILES
6 | O=[N+]([O-])c1ccc2nc3c(nc2c1)-c1cccc2c([N+](=O)[O-])ccc-3c12
9 | CN1CCN(c2ccc3c4c(cccc24)-c2nc4cc([N+](=O)[O-])ccc4nc2-3)CC1
11 | CN(C)CCNc1ccc2c3c(cccc13)-c1nc3cc([N+](=O)[O-])ccc3nc1-2
